Test results taken from ChEMBL document CHEMBL1201862, “PubChem BioAssay data set” (2004).
Calls of active or inactive are those of the source.

How the values were obtained:
[1] = target: T1, Ubiquitin-conjugating enzyme E2 N (Homo sapiens, UniProt P61088); type: functional;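 also: Dose-response confirmation in a TR-FRET assay detecting UBC13-driven polyubiquitin chain formation, inhibition measured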
T1 sequence (P61088 whole entry): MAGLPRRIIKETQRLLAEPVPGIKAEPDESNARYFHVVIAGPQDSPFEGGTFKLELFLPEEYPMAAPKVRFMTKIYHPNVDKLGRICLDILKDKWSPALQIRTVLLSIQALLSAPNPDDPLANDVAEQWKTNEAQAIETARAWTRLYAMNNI

Large T antigen = Large T antigen (Simian virus 40, UniProt P03070); type: functional, Betapolyomavirus macacae;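 also: Confirmatory-stage PubChem screen for compounds that inhibit SV40 T antigen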
[2] = NIH-3T3 fibroblast cytotoxicity, dose response, cytotoxicity control, cell-based, fluorescence, Alamar Blue, secondary assay (AID 2327); type: functional;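 also: NIH-3T3 mouse fibroblasts cultured with fluconazole at 8 µg/mL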
[3] = fluconazole-exposed Candida albicans growth modulators – fluorescence, retest, confirmation (AID 2467); type: functional, cell-based
[4] = Luminescence Cell-Based Dose Response HTS to Identify Activators of Luciferase Translation or Activity in H4 […] Cells. [Related pubchem assays: 1829 (Project Summary), 1814 (Primary HTS)]; type: functional
[5] = microbe, parasite or virus in culture; type: functional; conditions: Mycobacterium tuberculosis
[6] = Luminescence Cell-Based Dose Confirmation HTS to Identify Activators of 5'UTR Stem-Loop Driven Alpha-Synuclein mRNA Translation in H4 Neuroglioblastoma Cells. [Related pubchem assays: 1829 (Project Summary), 1814 (Primary HTS)]; type: functional
H4 = assay: Luminescence Cell-Based Dose Response HTS to Identify Activators of 5'UTR Stem-Loop Driven Prion Protein mRNA Translation in H4 Neuroglioblastoma Cells. [Related pubchem assays: 1829 (Project Summary), 1814 (Primary HTS)]; type: functional; conditions: Homo sapiens
[7] = target: T2, Polyadenylate-binding protein 1 (Homo sapiens, UniProt P11940); assay: MLLE domain peptide-binding blockers, IC50 – biochemical, fluorescence polarization, FITC-PAM2 peptide, dose response (AID 602259); type: functional; conditions: read-out: IC50_Mean
[8] = target: T2, Polyadenylate-binding protein 1; assay: MLLE binding blockers, Cy5 peptide tracer – biochemical, fluorescence polarization, Cy5-PAM2 peptide, secondary, miRNA deadenylation inhibitor project, dose response (AID 602260); type: functional; conditions: read-out: IC50_Mean
[9] = system: Streptococcus sp. 'group A'; assay: Streptococcus pyogenes SK(-)GAS viability under kanamycin – luminescence, BacTiterGlo, confirmation, counter-screen for streptokinase expression inhibitor project, dose response (AID 1900); type: functional, organism-based
Streptokinase A = target: T3, Streptokinase A (Streptococcus pyogenes serotype M1, UniProt P10520); assay: viability-normalized secreted streptokinase activity reduction – plasminogen activation absorbance, OD405, dose response (AID 1914); type: functional, Streptococcus pyogenes M1 GAS;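 also: secreted streptokinase activity via plasminogen activation per viability signal from cell pellet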
T3 sequence (P10520 whole entry): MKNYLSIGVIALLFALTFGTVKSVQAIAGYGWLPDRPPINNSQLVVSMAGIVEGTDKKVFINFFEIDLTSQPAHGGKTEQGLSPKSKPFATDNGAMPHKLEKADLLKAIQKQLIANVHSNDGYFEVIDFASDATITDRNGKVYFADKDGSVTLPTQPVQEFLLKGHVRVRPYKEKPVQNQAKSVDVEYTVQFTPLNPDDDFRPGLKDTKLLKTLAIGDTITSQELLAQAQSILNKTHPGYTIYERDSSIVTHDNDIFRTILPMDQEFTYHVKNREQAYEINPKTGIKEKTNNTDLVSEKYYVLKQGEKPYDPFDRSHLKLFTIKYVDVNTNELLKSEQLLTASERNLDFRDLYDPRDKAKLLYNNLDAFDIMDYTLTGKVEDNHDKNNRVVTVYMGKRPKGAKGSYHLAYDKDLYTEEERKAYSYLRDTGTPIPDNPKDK

Streptococcus = assay: GAS UMAA2166 growth inhibition – luminescence, BacTiterGlo, counter-screen for streptokinase expression inhibitor project, dose response (AID 1915); type: functional, organism-based;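 also: potency for reduction of bacterial viability or growth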
[10] = target: T4, Rac GTPase-activating protein 1 (Homo sapiens, UniProt Q9H0H5); assay: blockers of MgcRacGAP-driven Rac1 GTP hydrolysis – biochemical, ADP Hunter fluorescence, primary and confirmatory, confirmation (AID 624330); type: functional
T4 sequence (Q9H0H5 whole entry): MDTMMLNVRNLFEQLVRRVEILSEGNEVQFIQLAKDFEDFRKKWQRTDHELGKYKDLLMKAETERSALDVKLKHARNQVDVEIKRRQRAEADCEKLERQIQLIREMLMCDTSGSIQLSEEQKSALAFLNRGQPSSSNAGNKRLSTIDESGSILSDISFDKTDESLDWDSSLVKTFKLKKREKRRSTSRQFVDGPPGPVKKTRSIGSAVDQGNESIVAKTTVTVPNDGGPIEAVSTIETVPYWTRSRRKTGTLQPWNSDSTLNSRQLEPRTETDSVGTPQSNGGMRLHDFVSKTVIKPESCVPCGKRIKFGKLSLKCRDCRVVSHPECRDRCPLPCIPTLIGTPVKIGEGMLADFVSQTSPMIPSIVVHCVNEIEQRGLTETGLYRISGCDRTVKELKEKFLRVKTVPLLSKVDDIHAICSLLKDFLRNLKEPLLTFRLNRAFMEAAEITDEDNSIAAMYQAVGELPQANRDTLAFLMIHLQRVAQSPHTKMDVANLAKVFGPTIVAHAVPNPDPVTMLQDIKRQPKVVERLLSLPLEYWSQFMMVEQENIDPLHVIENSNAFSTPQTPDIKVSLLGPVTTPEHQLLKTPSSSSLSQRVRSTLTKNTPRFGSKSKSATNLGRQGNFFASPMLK

[11] = target: T5, Heat shock factor protein 1 (Mus musculus, UniProt P38532); assay: enhancement of HSF1-driven luciferase signal – cell-based, NIH3T3, luminescence, dose retest, confirmation (AID 435004); type: functional;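 also: stress induced by proteasome inhibitor MG132 added 30 min after compound; luciferase reporter driven by HSF1 response element in NIH3T3 cells; actives raise luminescence as potentiators of the MG132 stress response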
T5 sequence (P38532 whole entry): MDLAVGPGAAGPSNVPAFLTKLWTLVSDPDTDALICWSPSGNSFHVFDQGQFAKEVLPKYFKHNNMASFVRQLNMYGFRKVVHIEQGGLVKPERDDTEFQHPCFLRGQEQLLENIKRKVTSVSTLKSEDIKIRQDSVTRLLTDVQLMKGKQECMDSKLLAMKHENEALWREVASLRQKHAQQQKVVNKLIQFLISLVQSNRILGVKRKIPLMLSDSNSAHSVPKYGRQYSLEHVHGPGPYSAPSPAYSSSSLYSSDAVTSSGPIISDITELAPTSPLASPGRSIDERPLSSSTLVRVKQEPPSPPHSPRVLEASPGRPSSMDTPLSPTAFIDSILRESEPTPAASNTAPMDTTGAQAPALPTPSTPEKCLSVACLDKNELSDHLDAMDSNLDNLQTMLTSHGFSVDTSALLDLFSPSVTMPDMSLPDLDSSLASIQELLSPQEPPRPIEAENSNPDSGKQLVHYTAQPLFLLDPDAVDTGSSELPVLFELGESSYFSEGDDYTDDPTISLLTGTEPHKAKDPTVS

[12] = alpha-synuclein stem-loop luciferase translation blockers – H4 neuroglioma cells, luminescence, confirmation (AID 1988); type: functional, cell-based
[13] = luciferase reporter signal suppression in cells – H4 neuroglioma cells, luminescence, dose response (AID 1990); type: functional, cell-based
[14] = Luminescence Cell-Based Dose Response HTS to Identify Inhibitors of 5'UTR Stem-Loop Driven Prion Protein mRNA Translation in H4 Neuroglioblastoma Cells. [Related pubchem assays: 1827 (Project Summary), 1813 (Primary HTS)]; type: functional
[15] = Luminescence Cell-Based Dose Retest to Confirm Inhibitors of Cancer Stem Cells. [Related pubchem assays (depositor defined):AID2717, AID2721]; type: functional; conditions: Homo sapiens
Cytochrome P450 2D6 = Cytochrome P450 2D6 (Homo sapiens, UniProt P10635);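 also: CYP2D6 member of a cytochrome P450 panel assay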
cells = type: functional
[16] = P. falciparum Dd2 growth inhibitors, dose response, SYBR Green, cherry-picked samples (AID 1159567); type: functional, cell-based

Sequence of Large T antigen (P03070 whole entry): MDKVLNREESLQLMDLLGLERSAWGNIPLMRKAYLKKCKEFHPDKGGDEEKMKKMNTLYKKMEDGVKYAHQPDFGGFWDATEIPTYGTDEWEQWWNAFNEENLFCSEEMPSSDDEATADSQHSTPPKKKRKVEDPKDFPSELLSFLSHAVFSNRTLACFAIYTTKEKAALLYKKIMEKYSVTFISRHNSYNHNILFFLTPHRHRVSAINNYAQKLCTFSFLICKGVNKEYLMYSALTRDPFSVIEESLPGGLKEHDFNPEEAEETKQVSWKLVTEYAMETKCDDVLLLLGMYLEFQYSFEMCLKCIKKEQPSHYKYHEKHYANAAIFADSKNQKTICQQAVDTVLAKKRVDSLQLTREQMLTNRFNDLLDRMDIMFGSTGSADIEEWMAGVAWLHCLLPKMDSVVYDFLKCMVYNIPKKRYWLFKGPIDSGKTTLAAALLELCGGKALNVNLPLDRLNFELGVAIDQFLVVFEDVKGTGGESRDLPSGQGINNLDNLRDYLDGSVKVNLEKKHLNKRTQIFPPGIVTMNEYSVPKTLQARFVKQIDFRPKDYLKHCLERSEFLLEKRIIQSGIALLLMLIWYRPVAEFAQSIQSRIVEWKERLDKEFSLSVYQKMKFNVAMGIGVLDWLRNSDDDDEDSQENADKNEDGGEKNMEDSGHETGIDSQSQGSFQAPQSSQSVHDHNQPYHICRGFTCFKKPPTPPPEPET
T2 sequence (P11940 whole entry, the tested form may be a part): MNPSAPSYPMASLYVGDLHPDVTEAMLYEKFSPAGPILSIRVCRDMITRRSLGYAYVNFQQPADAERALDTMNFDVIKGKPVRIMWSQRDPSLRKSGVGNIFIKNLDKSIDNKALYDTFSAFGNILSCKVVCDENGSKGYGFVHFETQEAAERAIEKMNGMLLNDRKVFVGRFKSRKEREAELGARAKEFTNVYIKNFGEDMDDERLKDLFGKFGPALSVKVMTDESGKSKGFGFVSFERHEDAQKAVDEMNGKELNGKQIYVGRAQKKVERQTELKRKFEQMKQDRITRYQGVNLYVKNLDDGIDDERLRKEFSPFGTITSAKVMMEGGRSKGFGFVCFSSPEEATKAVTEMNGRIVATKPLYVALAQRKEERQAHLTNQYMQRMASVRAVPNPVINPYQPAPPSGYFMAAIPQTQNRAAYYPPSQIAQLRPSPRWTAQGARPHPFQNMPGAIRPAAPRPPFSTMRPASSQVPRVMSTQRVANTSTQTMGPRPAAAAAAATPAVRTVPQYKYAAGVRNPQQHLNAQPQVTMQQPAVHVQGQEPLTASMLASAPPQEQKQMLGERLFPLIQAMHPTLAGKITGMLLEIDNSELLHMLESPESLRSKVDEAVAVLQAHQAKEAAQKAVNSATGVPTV
Sequence of Cytochrome P450 2D6 (P10635 whole entry): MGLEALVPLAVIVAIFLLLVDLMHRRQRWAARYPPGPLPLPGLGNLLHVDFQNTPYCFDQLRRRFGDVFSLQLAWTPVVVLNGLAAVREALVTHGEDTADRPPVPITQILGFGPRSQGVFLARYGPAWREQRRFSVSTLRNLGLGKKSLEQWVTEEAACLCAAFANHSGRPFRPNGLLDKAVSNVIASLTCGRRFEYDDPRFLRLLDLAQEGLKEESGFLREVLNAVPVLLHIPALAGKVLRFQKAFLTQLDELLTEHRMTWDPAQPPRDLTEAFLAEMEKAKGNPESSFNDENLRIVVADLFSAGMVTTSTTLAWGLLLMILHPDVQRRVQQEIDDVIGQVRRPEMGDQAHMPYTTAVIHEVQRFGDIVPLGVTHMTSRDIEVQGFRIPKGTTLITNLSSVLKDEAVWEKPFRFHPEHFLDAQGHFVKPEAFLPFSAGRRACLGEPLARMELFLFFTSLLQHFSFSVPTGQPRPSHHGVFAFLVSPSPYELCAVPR

Compound: CC(=O)c1cn(S(=O)(=O)c2ccccc2)c2ccccc12
- IC50 [1]: > 20 µM (inactive)

Compound: O=C1ON=C(c2ccccc2)/C1=C\c1ccco1
- IC50 (Large T antigen): 28.2 µM (active)

Compound: CC(=O)Oc1cc2oc(=O)cc(C)c2cc1OC(C)=O
- IC50 (Large T antigen): 21.4 µM (active)

Compound: COc1ccc(C)cc1N=C(S)NNC(=O)c1c(Br)cnn1C
- EC50 [2]: > 150 µM (inactive)
- EC50 [3]: 1.45 µM (active)

Compound: COc1cc(/C=C2/SC(Nc3ccc(O)cc3)=NC2=O)cc(OC)c1O
- IC50 [1]: > 20 µM (inactive)

Compound: CC1(C)SC(=S)N(NC(=O)Nc2cccc3ccccc23)C1N(O)C(=O)Nc1ccccc1 (stereo unspecified)
- EC50 [4]: > 60 µM (not active)
- CC50 [5]: 36.3 µM (active)
- EC50 [6]: > 120 µM (not active)
- EC50 (H4): > 120 µM (not active)

Compound: CC(C)NS(=O)(=O)c1ccc(NC(=S)NC(=O)c2cccc([N+](=O)[O-])c2)cc1
- IC50 [7]: > 66 µM (inactive)
- IC50 [8]: > 66 µM (inactive)

Compound: CCOC(=O)c1[nH]c2ccc(F)cc2c1NC(=O)c1ccccc1C(=O)O
- EC50 [9]: > 150 µM (not active)
- EC50 (Streptokinase A): > 150 µM (not active)
- EC50 [2]: > 150 µM (inconclusive)
- EC50 [3]: > 38 µM (not active)
- EC50 (Streptococcus): > 150 µM (not active)

Compound: COc1ccc2c(c1)C(=O)Cc1ccccc1O2
- IC50 (Large T antigen): 86.7 µM (active)

Compound: CN1C(=O)C2C(c3ccc(N(C)C)cc3)=NN(Cc3ccccc3)C2C1=O (stereo unspecified)
- IC50 (Large T antigen): 19 µM (active)
- IC50 [10]: 43 µM (active)
- EC50 [11]: 40.3 µM (active)

Compound: CCCOC(c1ccccc1)(c1ccc(C(F)(F)F)cc1)C(Oc1nc(C)cc(C)n1)C(=O)O (stereo unspecified)
- EC50 [12]: 8.08 µM (active)
- EC50 [13]: 12.4 µM (active)
- EC50 [14]: 11.4 µM (active)
- EC50 [2]: > 160 µM (inactive)
- EC50 [3]: 1.91 µM (active)

Compound: COc1ccc(Cl)cc1C(=O)O/N=C(\N)c1ccccn1
- CC50 [5]: > 40 µM (active)

Compound: Cc1c(NC(=O)C(C)N2CC(C)OC(C)C2)c(=O)n(-c2ccccc2)n1C (stereo unspecified)
- EC50 [11]: > 260 µM (inactive)

Compound: CCCCn1c(SCC(=O)Nc2cccc(OC)c2)nc2ccc(N3CCOCC3)cc2c1=O
- EC50 [2]: 141 µM (active)
- EC50 [3]: > 38 µM (not active)

Compound: NC(=O)CN(c1ccccc1)C1SC(=O)N(Cc2ccccc2)C1=O (stereo unspecified)
- IC50 [7]: > 66 µM (inactive)
- IC50 [8]: > 66 µM (inactive)

Compound: COc1ccc2c3n(nc2c1)CCN=C3c1cc(Cl)c(N)c(Cl)c1
- CC50 [5]: 35.5 µM (active)

Compound: O=C(NC(=S)Nc1cccnc1)c1cc2ccccc2o1
- IC50 [7]: > 66 µM (inactive)
- IC50 [8]: > 66 µM (inactive)

Compound: CCC(=O)N1CCN(c2ccc(NC(=S)NC(=O)c3cccc([N+](=O)[O-])c3)cc2)CC1
- IC50 [7]: > 66 µM (inactive)
- IC50 [8]: > 66 µM (inactive)

Compound: O=C(O)c1ccccc1SC1CC(=O)N(c2cccc3ccccc23)C1=O (stereo unspecified)
- IC50 [7]: > 66 µM (inactive)
- IC50 [8]: > 66 µM (inactive)

Compound: Cc1cc(C(=O)NNc2ccc(Cl)cc2)no1
- AC50 [15]: 1.35 µM (active)
- EC50 [2]: 2.59 µM (active)
- EC50 [3]: 0.819 µM (active)

Compound: COCCSc1nnc(NC(=O)C2CC(=O)N(c3ccc(C)cc3)C2)s1 (stereo unspecified)
- EC50 [2]: > 160 µM (inactive)
- EC50 [3]: > 38 µM (not active)

Compound: CCCCOc1ccc(CNn2c(C)nc3ccccc3c2=O)cc1
- IC50 [1]: > 20 µM (inactive)
- AC50 (Cytochrome P450 2D6): 7.94 µM (inconclusive)

Compound: O=C(CSc1nccn(-c2ccc(Br)cc2)c1=O)NC1CCCC1
- IC50 [7]: > 66 µM (inactive)
- IC50 [8]: > 66 µM (inactive)

Compound: Cc1ccccc1-n1nnc2c(=O)oc3ccccc3c21
- IC50 (cells): 1.13 µM (active)
- EC50 [11]: > 260 µM (inactive)

Compound: COc1ccc(S(=O)(=O)N[C@@H](Cc2ccccc2)C(=O)N2CC[C@@]3(O)CCCC[C@H]3C2)cc1
- EC50 [11]: > 260 µM (inactive)

Compound: O=C(Nc1cccc(Cl)c1)C1CCCN(S(=O)(=O)c2ccc(F)cc2)C1 (stereo unspecified)
- EC50 [11]: > 260 µM (inactive)

Compound: CC(=O)NCCc1nc2ccccc2n1CCOc1cccc(C)c1
- EC50 [11]: > 260 µM (inactive)

Compound: CCCCN1C(=N)N([C@@H](CCC)CN2CCC[C@H]2CN2C(N)=NC[C@H]2CC(C)C)C[C@H]1Cc1ccccc1
- IC50 [1]: > 20 µM (inactive)

Compound: Oc1ccc(/C=N/Nc2ccc(Cl)nn2)cc1O
- IC50 (Large T antigen): 8.16 µM (active)

Compound: CN1CCN(/N=C/c2c[nH]c3ccccc23)CC1
- IC50 (Large T antigen): 15.4 µM (active)

Compound: O=C1/C(=N/n2cnnc2)c2ccccc2N1Cc1ccccc1
- IC50 (Large T antigen): 24.8 µM (active)

Compound: COc1cc(/C=N/NC(=O)c2ccoc2C)cc(OC)c1O
- IC50 (Large T antigen): 33.9 µM (active)

Compound: COc1cc(/C=N/NC(=O)CC2C(=O)NN=C2C)ccc1O (stereo unspecified)
- IC50 (Large T antigen): 11.5 µM (active)
- IC50 [10]: 53.7 µM (active)

Compound: CN(C)CC#Cc1ccc([C@H]2[C@H](CO)N3CCCCN(C(=O)CN(C)C)C[C@@H]23)cc1
- AC50 [16]: 9.36 µM (active)
